{
  "source": "patent EP0116944B1",
  "about": "(priority 1983, dated 1984)",
  "key": {"[1]": {"system": "Vasopressin-induzierten Koronarspasmen", "set-up": "species or system Ratten", "conditions": "in vivo; for Dauer der antianginösen Wirkung gegenüber Vasopressin: po"}, "[2]": {"assay": "in vivo", "conditions": "dog, iv"}, "[3]": {"system": "ST-Wellensenkung", "conditions": "cited from earlier work"}, "[4]": {"system": "systolischen Blutdruck", "set-up": "species or system Hunde", "conditions": "in vivo"}, "[5]": {"conditions": "intraduodenal, Ratten; cited from earlier work"}, "[6]": {"system": "hypotensive Wirkung", "conditions": "in vivo"}, "[7]": {"system": "Hypotensivum", "conditions": "orale Verabreichung; cited from earlier work"}, "[8]": {"system": "Blutdruck anästhesierter Ratten", "conditions": "in vivo"}},
  "note": "Like-named read-outs stand apart in the source and are kept apart here.",
  "data": [
    {"compound": "O=[N+]([O-])OC(CO)CO", "note": "[2-GN, Glycerin-2-nitrat]", "values": [
      {"measurement": "Dauer der antianginösen Wirkung gegenüber Vasopressin", "setting": "[1]", "value": "2 to 3", "unit": "h"},
      {"measurement": "half-life", "setting": "[2]", "value": 2.1, "unit": "h"}
    ]},
    {"compound": "OCCN(CCO)c1nc(N2CCCCC2)c2nc(N(CCO)CCO)nc(N3CCCCC3)c2n1", "note": "[Dipyridamol]", "values": [
      {"measurement": "Hemmung der ST-Wellensenkung", "setting": "[3]; in vivo", "value": "unwirksam"}
    ]},
    {"compound": "O=[N+]([O-])OCC(CO[N+](=O)[O-])O[N+](=O)[O-]", "note": "[GTN, Glycerintrinitrat]", "values": [
      {"measurement": "Beginn der Wirkung", "setting": "[4]", "value": "0,4 min"},
      {"measurement": "Einfluß auf den systolischen Blutdruck", "setting": "[4]", "value": "senkten"},
      {"measurement": "Hemmung der T-Wellenerhöhung / Vasopressin-induzierten Koronarspasmen", "setting": "[1]", "value": "entschieden den stärksten Einfluß"},
      {"measurement": "Dauer der antianginösen Wirkung gegenüber Vasopressin", "setting": "[1]", "value": "2 to 3", "unit": "h"},
      {"measurement": "Zeit, nach der kein weiterer Plasmawert der Ausgangssubstanz gemessen werden konnte", "setting": "[5]", "value": "≤ 5", "unit": "min"},
      {"measurement": "hypotensive Wirkung nach Vorbehandlung mit DHE", "setting": "[6]", "value": "herabgesetzt"},
      {"measurement": "Hemmung der ST-Wellensenkung", "setting": "[3]; in vivo", "value": "hemmte"},
      {"measurement": "Wirksamkeit als Hypotensivum", "setting": "[7]", "value": "inaktiv"},
      {"measurement": "Dauer der hypotensiven Wirkung", "setting": "[8]", "value": 14, "unit": "min"}
    ]},
    {"compound": "O=[N+]([O-])O[C@H]1CO[C@H]2[C@@H]1OC[C@H]2O[N+](=O)[O-]", "note": "[ISDN, Isosorbid-dinitrat]", "values": [
      {"measurement": "Hemmung der ST-Wellensenkung", "setting": "[3]; oral, Ratten", "value": "hemmten"}
    ]}
  ]
}
